Source: patent US20080220416A1, “Compositions for Inhibiting Cell Growth and Inducing Apoptosis in Cancer Cells and Methods of Use Thereof” (THE BOARD OF TRUSTEES OF THE UNIVERSITY OF ILLINOI, priority 2004, published 2008)
Square brackets hold non-standard residues; d marks the D form. Peptide text beside a SMILES is read from it. * marks the point of attachment. Nle = CCCC[C@H](N)C(=O)O; Cbz = O=C(OCc1ccccc1)*

How the values were obtained:
[1] = test system: Human Mammary Epithelial Cells (HMEC); assay: Proliferation of normal breast cells (HMEC) after siRNA; type: cell-based; conditions: siRNA transfection
Experimental: An invasive, estrogen-independent breast cancer cell line that spontaneously expresses high levels of Notch-1 and -4, MDA-MB231, and normal human breast cells were used to investigate whether inhibition of Notch activation or expression affects the biological behavior of breast cancer cells. […] Sequence specificity was determined by BLAST searches which determined the uniqueness of the sequences. […] Transfected cells were identified by Streptavidin-horseradish peroxidase staining (Vectastain) and counted. […]
Cytotoxicity and growth of transfected cells were estimated by a standard assay used for cancer drug screening, through the total amount of TCA-precipitated cell proteins after drug treatment (Likhitwitayawuid, K et al., 1993, J Nat Prod 56:30-38): 200 μl of cell suspension (10^5 cells/ml) were added to each well in a 96-well plate. […] Plates were shaken for 5-10 minutes and OD at 490 nm (OD490) was recorded via ELISA reader. […] After removal of the non-invading cells from the interior of the inserts, stained invading cells were lysed in 10% acetic acid and OD595 was determined.

[2] = test system: T47D:A18 breast cancer cells; assay: z-Leu-Leu-Nle-CHO plus Paclitaxel, growth inhibition of T47D:A18 cells; type: cell-based, human; conditions: 0-0.8 μM with Paclitaxel, 48 h
Experimental: (§1) Three different types of breast cancer cells were contacted with varying concentrations of z-Leu-Leu-Nle-CHO (0-0.8 μM) and the mitotic poison Paclitaxel (0.01-1 μM). MDA-MB231 cells were obtained from ATCC (Rockville, Md.). T47D:C42 and T47D:A18 cells were a kind gift of Debra Tonetti (University of Illinois-Chicago). MDA-MB231 cells were cultured in DMEM medium with 10% FBS. T47D:C42 and T47D:A18 cells were propagated in RPMI 1640 with 10% FBS, 100 μM non-essential amino acid and 6 ng/ml insulin. Gamma-secretase inhibitor z-Leu-Leu-Nle-CHO (Calbiochem 565750) was dissolved in DMSO, aliquoted and stored at −80° C. Paclitaxel (Sigma, St. Louis Mo.) was dissolved in DMSO, aliquoted and stored at −80° C.
(§2) To determine whether z-Leu-Leu-Nle-CHO treatment potentiates the effect of Paclitaxel on human breast cancer cells, MDA-MB231, T47D:C42 and T47D:A18 cells were treated for 48 h with 0-0.8 μM z-Leu-Leu-Nle-CHO and various concentrations of Paclitaxel (0.008-1 μM) Following the z-Leu-Leu-Nle-CHO and Paclitaxel treatment, the cells were tested for growth inhibition as described above in Example 13.

[3] = test system: cytochrome C and Smac/DLABLO; assay: Mitochondrial integrity by Western blot in RJ002L melanoma cells; type: cell-based, human; conditions: 10 μM
Experimental: Western blot analyses following z-Leu-Leu-Nle-CHO and control treatment of RJ002L melanoma cells were performed to determine the effect of z-Leu-Leu-Nle-CHO on pro-survival and pro-apoptotic proteins. Whole cell extracts were prepared and analyzed as described by Denning, M. F. et al., 1998, J Biol Chem 273: 29995-30002, 1998. The enriched mitochondria pellet and mitochondria-free cytosol of melanoma cells were prepared with the APO ALERT cell fraction kit (Clontech Laboratories, Inc. Palo Alto, Calif.) according to the manufacturer's instructions. For Western blot analysis, equal amounts of protein extracted from each sample (20-30 μg) were loaded into pre-cast 7% NuPAGE Tris-acetate gels or 4-12% NuPAGE Bis-tris gels (Invitrogen). Proteins were separated by SDS-PAGE and transferred to polyvinylidene difluoride membranes (Bio-Rad, Hercules, Calif.) using Invitrogen's buffering system. The indicated primary antibodies were incubated for indicated period of time, washed, and visualized by incubation with horseradish peroxidase-conjugated secondary antibodies and chemiluminescent reagents (Roche Diagnostics Corporation, Indianapolis, Ind.). […]
Mitochondrial integrity before and after exposure to z-Leu-Leu-Nle-CHO was evaluated using Western blot analysis as described above.

[4] = test system: MDA-MB-231 breast cancer cells; assay: z-Leu-Leu-Nle-CHO plus Paclitaxel, growth inhibition of MDA-MB-231 cells; type: cell-based, human; conditions: 0-0.8 μM with Paclitaxel, 48 h
Experimental: as §1, §2

| Compound | proliferation [1] | effect on Paclitaxel cell growth inhibition [2] | release of cytochrome C and Smac/DLABLO from mitochondria [3] | effect on Paclitaxel cell growth inhibition [4] |
| --- | --- | --- | --- | --- |
| 5′-AAGTGTCTGAGGCCAGCAAGA-3′ [Notch-1 siRNA] | inhibits proliferation of normal breast cells | – | – | – |
| CCCC[C@@H](C=O)NC(=O)[C@H](CC(C)C)NC(=O)[C@H](CC(C)C)NC(=O)OCc1ccccc1 [z-Leu-Leu-Nle-CHO, N-benzyloxycarbonyl-leucyl-leucyl-norleucinal] (Cbz-Leu-Leu-[Nle]-aldehyde) | – | potentiated the effects of Paclitaxel on cell growth inhibition | released into the cytoplasm of RJ002L melanoma cells as early as 1 hr | moderately potentiated the effects of Paclitaxel on cell growth inhibition |
